From the NIST ThermoML archive (doi:10.1021/je020153x)
Numbers after ± are expanded uncertainties.

Assay: mn = molality of the nth substance listed, in mol/kg
Conditions: 101.3 kPa, Liquid; for viscosity: Capillary tube (Ostwald / Ubbelohde) method; for mass density: Vibrating tube method

O [water] + [Cl-].[Na+]
m2 = 0
Conditions	viscosity [mPa·s]
293.15 K	1.002 ± 0.009
303.15 K	0.797 ± 0.007
313.15 K	0.653 ± 0.006

[Cl-].[Na+] [sodium chloride] + O
Conditions	mass density, 293.15 K [kg/m3]	mass density, 303.15 K [kg/m3]	mass density, 313.15 K [kg/m3]	viscosity, 293.15 K [mPa·s]	viscosity, 303.15 K [mPa·s]	viscosity, 313.15 K [mPa·s]
m1 = 0.5	1018.6 ± 0.2	1015.7 ± 0.2	1011.9 ± 0.2	1.041 ± 0.009	0.835 ± 0.008	0.688 ± 0.007
m1 = 1	1037.8 ± 0.2	1034.4 ± 0.2	1030.4 ± 0.2	1.087 ± 0.01	0.873 ± 0.008	0.722 ± 0.007
m1 = 1.5	1056.3 ± 0.2	1052.6 ± 0.2	1048.4 ± 0.2	1.138 ± 0.01	0.918 ± 0.008	0.76 ± 0.007
m1 = 2	1074.1 ± 0.2	1070.1 ± 0.2	1065.7 ± 0.2	1.196 ± 0.01	0.966 ± 0.009	0.802 ± 0.007
m1 = 2.5	1091.4 ± 0.2	1087.2 ± 0.2	1082.5 ± 0.2	1.264 ± 0.011	1.021 ± 0.009	0.848 ± 0.008
m1 = 3	1107.8 ± 0.2	1103.4 ± 0.2	1098.6 ± 0.2	1.333 ± 0.012	1.077 ± 0.01	0.895 ± 0.008
m1 = 3.5	1123.9 ± 0.3	1119.2 ± 0.3	1114.3 ± 0.3	1.411 ± 0.012	1.14 ± 0.01	0.945 ± 0.009
m1 = 4	1139.2 ± 0.3	1134.4 ± 0.3	1129.3 ± 0.3	1.499 ± 0.013	1.208 ± 0.011	1 ± 0.009

O=C[C@H](O)[C@@H](O)[C@H](O)[C@H](O)CO [D-glucose] + O
Conditions	mass density, 293.15 K [kg/m3]	mass density, 303.15 K [kg/m3]	mass density, 313.15 K [kg/m3]	viscosity, 293.15 K [mPa·s]	viscosity, 303.15 K [mPa·s]	viscosity, 313.15 K [mPa·s]
m1 = 0.5	1030.7 ± 0.2	1027.7 ± 0.2	1024 ± 0.2	1.256 ± 0.011	0.988 ± 0.009	0.801 ± 0.007
m1 = 1	1059.7 ± 0.2	1056.4 ± 0.2	1052.4 ± 0.2	1.587 ± 0.014	1.231 ± 0.011	0.985 ± 0.009
m1 = 1.5	1085.4 ± 0.3	1081.8 ± 0.3	1077.6 ± 0.2	1.993 ± 0.018	1.523 ± 0.014	1.205 ± 0.011
m1 = 2	1108.8 ± 0.3	1105 ± 0.3	1100.6 ± 0.3	2.512 ± 0.023	1.89 ± 0.018	1.475 ± 0.014
m1 = 2.5	1129.8 ± 0.3	1125.7 ± 0.3	1121.2 ± 0.3	3.159 ± 0.029	2.341 ± 0.022	1.804 ± 0.017
m1 = 3	1148.8 ± 0.3	1144.6 ± 0.3	1139.9 ± 0.3	3.947 ± 0.037	2.873 ± 0.028	2.182 ± 0.021
m1 = 3.5	1166.3 ± 0.3	1161.9 ± 0.3	1157.1 ± 0.3	4.96 ± 0.046	3.553 ± 0.035	2.66 ± 0.026
m1 = 4	1182.2 ± 0.3	1177.7 ± 0.3	1172.7 ± 0.3	6.131 ± 0.056	4.309 ± 0.043	3.175 ± 0.033

O [water] + O=C[C@H](O)[C@@H](O)[C@H](O)[C@H](O)CO
m2 = 0
Conditions	viscosity [mPa·s]
293.15 K	1.002 ± 0.009
303.15 K	0.797 ± 0.007
313.15 K	0.653 ± 0.006
